We go through ten compounds from US5998433A, “Condensed compounds, their production and use” (Takeda Chemical Industries, Ltd., priority 1994, dated 1999).

The subject of experiment [1] is Candida utilis IFO 0619. The experiment in a line: Antifungal activity (agar plate dilution method), organism G. In kind it is cell-based. Particulars: Williopsis jadinii, IFO0619, 35° C., 20 hours, pH 7.0. On the procedure:
(§1) Determination of Antifungal Activity (Agar Plate Dilution Method)
(§2) RPMI 1640 (Gibco BRL) was dissolved in 0.3 M MOPS buffer, pH 7.0, to obtain a 2-fold dilution; this solution was filtered to remove germ cells (0.45 μm). Separately, 1.4% agar (Wako Pure Chemical Industries) was thermally sterilized (121° C., 15 minutes). This agar was mixed with an equal amount of the above 2-fold diluted RPMI 1640 (0.15 M MOPS, pH 7.0). To 9.9 ml of this RPMI 1640 (0.15 M MOPS, pH 7.0)-0.7% agar medium, 0.1 ml of a 100-fold diluted DMSO solution of the test drug was added; this mixture was prepared as an agar plate in a petri dish 9 cm in diameter. The drug (dissolved in DMSO to 100-fold dilution) was used in a series of 2-fold dilutions of a starting concentration of 64 μg/ml in the agar medium. For drug-free control, an agar medium containing 0.1 ml of DMSO or […] of sterile water was prepared. An inoculum of frozen cells was diluted with physiological saline and spot inoculated onto the agar medium (0.005 ml; 700-15,000 cfu) using a microplanter (Sakuma Seisakusho), followed by cultivation at 35° C. for 20 hours. Antifungal activity was assessed macroscopically; the minimum concentration for complete growth inhibition was expressed as MIC (minimum growth inhibitory concentration).

Experiment [2] has as its system Candida tropicalis IFO 0587. The experiment in a line: Antifungal activity (agar plate dilution method), organism B. In kind it is cell-based. The following applies: IFO0587, 35° C., 20 hours, pH 7.0. On the procedure:
as §1, §2

The test system of experiment [3] is Candida krusei IFO 1162. The experiment in a line: Antifungal activity (agar plate dilution method), organism F. Particulars: Pichia kudriavzevii, IFO1162, 35° C., 20 hours, pH 7.0. In kind it is cell-based. On the procedure:
as §1, §2

The subject of experiment [4] is Candida krusei IFO 0584. Briefly: Antifungal activity (agar plate dilution method), organism E. In kind it is cell-based. The following applies: Pichia kudriavzevii, IFO0584, 35° C., 20 hours, pH 7.0. The method, then:
as §1, §2

For experiment [5], the system named is Aspergillus fumigatus IFO 6344. Briefly: Antifungal activity (agar plate dilution method), organism H. Particulars: IFO6344, 35° C., 20 hours, pH 7.0. In kind it is cell-based. The method, then: as §1, §2
The test system of experiment [6] is Candida albicans IFO 0583. Briefly: Antifungal activity (agar plate dilution method), organism A. In kind it is cell-based. Particulars: IFO0583, 35° C., 20 hours, pH 7.0. On the procedure:
as §1, §2

Experiment [7] has as its system Aspergillus niger IFO 4414. Briefly: Antifungal activity (agar plate dilution method), organism I. In kind it is cell-based. Particulars: IFO4414, 35° C., 20 hours, pH 7.0. On the procedure:
as §1, §2

The subject of experiment [8] is Candida tropicalis IFO 10241. Briefly: Antifungal activity (agar plate dilution method), organism C. Particulars: IFO10241, 35° C., 20 hours, pH 7.0. In kind it is cell-based. On the procedure: as §1, §2
For experiment [9], the system named is Candida glabrata IFO 0622. Briefly: Antifungal activity (agar plate dilution method), organism D. The following applies: Nakaseomyces glabratus, IFO0622, 35° C., 20 hours, pH 7.0. In kind it is cell-based. On the procedure: as §1, §2
Experiment [10] in a line: Plasma HDL-cholesterol-elevating effect in Wistar fatty rats. In kind it is in vivo, Female Wistar fatty rats. Particulars: for HDL-cholesterol / Total cholesterol / Glucose / Triglyceride / Non-HDL-cholesterol: plasma, 1 week, stomach tube, mean ± standard deviation; for HDL-cholesterol: control 92.4 ± 9.2; for Total cholesterol: control 154 ± 13; for Glucose: control 285 ± 45; for Triglyceride: control 694 ± 192; for Non-HDL-cholesterol: total minus HDL, control 62.0 ± 12.5. The text has this: Plasma HDL-cholesterol-elevating Effect in Wistar Fatty Rats
Female Wistar fatty rats (19 weeks of age, bred in Experimental Animals Unit, Takeda Chemical Industries, Ltd.) were given a 0.5% methyl-cellulosesolution of compound 31 by a stomach tube for 1 week. Blood was collected via the orbital sinus under non-fasting conditions; plasma total cholesterol and HDL-cholesterol were enzymatically determined using a commercial kit (produced by Wako Pure Chemical Industries, Ltd.). Non-HDL-cholesterol levels were obtained by subtracting HDL-cholesterol from total cholesterol levels. Triglyceride and glucose were also enzymatically determined using commercial kits (both produced by Iatron Laboratories, Inc.).

Where a name gives a salt, the structure may show the parent alone.

As to `CN(C)Cc1cc2c(o1)CCN(C(=O)CCCCCc1ccccc1)C2` [Example 6, 1-(2-dimethylaminomethyl-6,7-dihydro-4H-furo[3,2-c]pyridin-5-yl)-6-phenylhexan-1-one hydrochloride], the minimal inhibitory concentration (MIC) – broadly, the lowest concentration found to suppress growth – in experiment [1] turned out to be 2 mg/L; in [2], 2 mg/L; in [3], 16 mg/L; in experiment [4], 4 mg/L; in experiment [5], 16 mg/L; in experiment [6], 16 mg/L. For the same compound, the MIC in [7] came out at 8 mg/L; in experiment [8] it was 16 mg/L; in experiment [9] it was 32 mg/L.
`CCCCCCCc1ccc(C(=O)N2CCc3cc(CN(C)C)oc3C2)cc1` [Example 21, N,N-dimethyl-[6-(4-heptylbenzoyl)-4,5,6,7-tetrahydrofuro[2,3-c]pyridin-2-ylmethyl]amine hydrochloride]: the MIC was 1 mg/L in experiment [1]; 2 mg/L in experiment [2]; 2 mg/L in experiment [3]; 1 mg/L in experiment [4]; 1 mg/L in [5]; 2 mg/L in experiment [6]. The MIC in experiment [7] was determined as 1 mg/L; in experiment [8] it was 2 mg/L; in experiment [9], 4 mg/L.
Take `CN(C)Cc1cc2c(o1)CN(C(=O)CCCCCc1ccc(F)cc1)CC2` [Example 27, 1-(2-dimethylaminomethyl-5,7-dihydro-4H-furo[2,3-c]pyridin-6-yl)-6-(4-fluorophenyl)hexan-1-one hydrochloride]: the minimum inhibitory concentration (MIC) in experiment [1] is 2 mg/L; in experiment [2] it was 32 mg/L; in experiment [3], 8 mg/L; in experiment [4], 4 mg/L; in [5] it was 2 mg/L; in experiment [6], 16 mg/L. The MIC in [7] was found to be 2 mg/L; in experiment [8], 64 mg/L; in experiment [9] it was 16 mg/L.
Take `CN(C)Cc1cc2c(o1)CCN(C(=O)CCCCCc1ccc(F)cc1)C2` [Example 28, 1-(2-dimethylaminomethyl-6,7-dihydro-4H-furo[3,2-c]pyridin-5-yl)-6-(4-fluorophenyl)hexan-1-one hydrochloride]: the minimal inhibitory concentration (MIC) in [1] turned out to be 2 mg/L; in experiment [2], 2 mg/L; in experiment [3] it was 8 mg/L; in [4], 4 mg/L; in experiment [5], 4 mg/L; in experiment [6], 8 mg/L. The MIC in [7] came out at 4 mg/L; in experiment [8], 32 mg/L; in [9], 16 mg/L.
For the compound `CN(C)Cc1cc2c(o1)CN(C(=O)c1ccc(C(=O)c3ccc(Cl)cc3)cc1)CC2` [Example 31, N,N-dimethyl-[6-[4-(4-chlorobenzoyl)benzoyl]-4,5,6,7-tetrahydrofuro[2,3-c]pyridin-2-ylmethyl]amine hydrochloride], the minimum inhibitory concentration (MIC) in experiment [1] stood at 4 mg/L; in experiment [2], 2 mg/L; in experiment [3], 32 mg/L; in experiment [4], 16 mg/L; in experiment [5], 0.5 mg/L; in experiment [6], 8 mg/L. In addition, the minimum inhibitory concentration (MIC) in experiment [7] is 0.5 mg/L; in [8], 16 mg/L; in [9], 64 mg/L. The “Plasma HDL-cholesterol level” value in [10] (in words, Wistar fatty rats) was “increased significantly, depending on dose”. Moreover, the Plasma glucose level result in [10] (in words, Wistar fatty rats) is listed as “not affected”. In addition, in experiment [10] (in words, Wistar fatty rats), the “Plasma non-HDL-cholesterol level” value is “not affected”. Also, the “Plasma total cholesterol level” value in [10] (in words, Wistar fatty rats) was “increased significantly, depending on dose”. In addition, in [10] (in words, Wistar fatty rats), the Plasma triglyceride level entry is reported as “not affected”. Moreover, the HDL-cholesterol was found to be 113 ± 15.4 mg/dL in experiment [10] (0.1 mg/kg-day, p<0.05) and 135 mg/dL in experiment [10] (0.3 mg/kg-day, p<0.05). Moreover, the Total cholesterol was determined as 175 ± 21 mg/dL in [10] (0.1 mg/kg-day) and 192 ± 24 mg/dL in experiment [10] (0.3 mg/kg-day, p<0.05). In addition, the Glucose came to 251 ± 72 mg/dL in experiment [10] (0.1 mg/kg-day) and 242 ± 39 mg/dL in [10] (0.3 mg/kg-day). Moreover, the Triglyceride in experiment [10] (0.1 mg/kg-day) stood at 599 ± 195 mg/dL; in [10] (0.3 mg/kg-day) it was 538 ± 155 mg/dL. In addition, the Non-HDL-cholesterol came to 62.5 ± 7.9 mg/dL in [10] (0.1 mg/kg-day) and 57.1 ± 10.7 mg/dL in experiment [10] (0.3 mg/kg-day).
On to `CN(C)Cc1cc2c(o1)CCN(C(=O)c1ccc(C(=O)c3ccc(Cl)cc3)cc1)C2` [Example 32, N,N-dimethyl-[5-[4-(4-chlorobenzoyl)benzoyl]-4,5,6,7-tetrahydrofuro[3,2-c]pyridin-2-ylmethyl]amine hydrochloride], for which the minimal inhibitory concentration (MIC) in experiment [1] is 8 mg/L; in experiment [2], 8 mg/L; in [3] it was 32 mg/L; in experiment [4], 32 mg/L; in [5] it was 2 mg/L; in [6] it was 16 mg/L. For the same compound, the MIC came out at 2 mg/L in experiment [7], 32 mg/L in [8] and 32 mg/L in experiment [9].
For the compound `CN(C)Cc1cc2c(o1)CN(C(=O)c1ccc(/C=C\c3ccccc3)cc1)CC2` [Example 33, (Z)-N,N-dimethyl-[6-(4-stilbenecarbonyl)-4,5,6,7-tetrahydrofuro[2,3-c]pyridin-2-ylmethyl]amine hydrochloride], the MIC in experiment [1] was determined as 4 mg/L; in experiment [2] it was 16 mg/L; in experiment [3] it was 16 mg/L; in [4], 8 mg/L; in [5], 0.5 mg/L; in experiment [6], 32 mg/L. In addition, the results for the MIC in [7], in experiment [8] and in experiment [9] were 0.25 mg/L, 64 mg/L and 16 mg/L, respectively.
`CN(C)Cc1cc2c(o1)CN(C(=O)CCCCSc1ccccc1)CC2` [Example 43, 1-(2-dimethylaminomethyl-5,7-dihydro-4H-furo[2,3-c]pyridin-6-yl)-5-phenylthiopentan-1-one hydrochloride]: the minimal inhibitory concentration (MIC) in experiment [1] worked out at 2 mg/L; in experiment [2], 2 mg/L; in experiment [3], 16 mg/L; in experiment [4] it was 16 mg/L; in [5] it was 8 mg/L; in experiment [6] it was 8 mg/L. Also, the minimal inhibitory concentration (MIC) in experiment [7] worked out at 4 mg/L; in experiment [8], 8 mg/L; in experiment [9], 16 mg/L.
Consider `CN(C)Cc1cc2c(o1)CCN(C(=O)CCCCSc1ccccc1)C2` [Example 44, 1-(2-dimethylaminomethyl-6,7-dihydro-4H-furo[3,2-c]pyridin-5-yl)-5-phenylthiopentan-1-one hydrochloride], for which the MIC in [1] is 4 mg/L; in experiment [2], 8 mg/L; in experiment [3], 16 mg/L; in experiment [4], 8 mg/L; in experiment [5], 8 mg/L; in experiment [6], 16 mg/L. Further, the MIC in experiment [7] is 8 mg/L; in experiment [8] it was 8 mg/L; in experiment [9] it was 32 mg/L.
As to `CN(C)Cc1cc2c(o1)CCN(C(=O)OCCCCc1ccccc1)C2` [Example 48, N,N-dimethyl-[5-(4-phenylbutoxycarbonyl)-4,5,6,7-tetrahydrofuro[3,2-c]pyridin-2-ylmethyl]amine hydrochloride], the MIC in experiment [1] was 2 mg/L; in [2], 8 mg/L; in experiment [3], 16 mg/L; in experiment [4], 8 mg/L; in experiment [5], 32 mg/L; in [6], 16 mg/L. In addition, the minimum inhibitory concentration (MIC) in [7] was determined as 16 mg/L; in experiment [8] it was 64 mg/L; in experiment [9] it was 32 mg/L.
